Assays:
DIPGX29 [1] = H3.3 K27M diffuse intrinsic pontine glioma line; experiment: EC50 (inflection of fitted growth-inhibition curve) (log10 M)
Procedure, shortened: (§1)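 A pin tool was used to add a 10-point threefold dilution series (mean top concentration 35 μM), in triplicate, to patient-derived pHGG/DIPG cell lines and astrocyte controls seeded on 384-well plates coated with 1% Geltrex. After 7 days at 37 °C and 5% CO2 (3 days for iAstro), CellTiter-Glo luminescence was log2-transformed, normalised on each plate to % activity relative to negative (solvent) and positive control wells, and pooled. EC50 and maximal response (yFin) were read from the three- or four-parameter log-logistic fit with the lowest AICc.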

DIPGX37 [2] = H3.3 K27M diffuse intrinsic pontine glioma line; experiment: as above
Procedure, shortened: as §1

HGGX39 [3] = paediatric high-grade glioma line; experiment: as above
Procedure, shortened: as §1

HGGX6 [4] = H3.3 G34R paediatric high-grade glioma line; experiment: as above
Procedure, shortened: as §1

DIPGX29 [5] = experiment: maximal growth inhibition (yFin) relative to DMSO / staurosporine; higher = more efficacious
Procedure, shortened: as §1

DIPGX37 [6] = experiment: as above
Procedure, shortened: as §1

HGGX39 [7] = experiment: as above
Procedure, shortened: as §1

HGGX6 [8] = experiment: as above
Procedure, shortened: as §1

DIPGX29 [9] = experiment: area under dose-response curve of % growth inhibition (log2 RLU vs DMSO / staurosporine), 1e-11 to 1e-4 M (% x log10 M); higher = more growth inhibition
Procedure, shortened: (§2)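 A 10-point threefold dilution series, mean top concentration 35 μM, was applied in triplicate to patient-derived pHGG/DIPG lines and astrocytes on 1% Geltrex-coated 384-well plates for 7 days (3 days for iAstro) at 37 °C, 5% CO2. Per-plate % activity between solvent and positive controls was calculated from log2-transformed CellTiter-Glo luminescence. Area under the curve followed from the trapezoid rule on a log-logistic fit, or on a smoothing spline when the sigmoid fit failed.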

DIPGX37 [10] = experiment: as above
Procedure, shortened: as §2

HGGX39 [11] = experiment: as above
Procedure, shortened: as §2

HGGX6 [12] = experiment: as above
Procedure, shortened: as §2

SMILES	EC50 (log10 M) (DIPGX29 [1])	EC50 (log10 M) (DIPGX37 [2])	EC50 (log10 M) (HGGX39 [3])	EC50 (log10 M) (HGGX6 [4])	maximal growth inhibition (DIPGX29 [5])	maximal growth inhibition (DIPGX37 [6])	maximal growth inhibition (HGGX39 [7])	maximal growth inhibition (HGGX6 [8])	area under dose-response curve (DIPGX29 [9])	area under dose-response curve (DIPGX37 [10])	area under dose-response curve (HGGX39 [11])	area under dose-response curve (HGGX6 [12])
O=C(N/N=C/c1ccc([N+](=O)[O-])o1)c1ccc(O)cc1 [NIFUROXAZIDE]	-4.78	-4.75	-4.81	-4.77	81.1%	81.6%	49.3%	74.2%	73.5	78.2	39.4	56.6
CCCCCCCCOc1ccccc1C(=O)Nc1ccc(C(=O)OCC[N+](C)(CC)CC)cc1 [OTILONIUM]	-4.75	-4.86	-4.96	-4.88	22.4%	26.4%	77.5%	69.5%	16.8	22.7	74.2	61.2
CCN(CC)CCOCCOC(=O)C(CC)(CC)c1ccccc1 [OXELADIN]	-4.79	-4.88	-4.84	-4.83	25.1%	34.4%	64.4%	28.2%	19.7	35.4	59.1	28.1
CN(C(=O)CN(CCO)CC(=O)N(C)C(C)(C)Cc1ccccc1)C(C)(C)Cc1ccccc1 [OXETHAZAINE]	-4.81	-4.8	-4.81	-4.82	77.7%	82.1%	88.2%	47.3%	63	65.5	71.1	38.4
N=C(N)c1ccc(OCCCCCOc2ccc(C(=N)N)cc2)cc1 [PENTAMIDINE]	-5.15	-5.08	-6.05	-5.4	38.4%	31.7%	32.4%	33.1%	55.6	50	66.5	45.3
COc1cc2nc(N3CCN(C(=O)c4ccco4)CC3)nc(N)c2cc1OC [PRAZOSIN]	-4.88	-4.92	-4.9	-5.03	75.3%	75.4%	74.7%	75%	66.6	75.3	66.9	76.9
COc1cc(NC(C)CCCN)c2ncccc2c1 (stereo not drawn) [PRIMAQUINE]	-5.69	-5.5	-5.5	-5.38	72.2%	72.9%	75.8%	78%	131	116	113	107
NCCOc1cc(C(=O)Nc2cc(OCCN)c3ccccc3n2)nc(C(=O)Nc2cc(OCCN)c3ccccc3n2)c1 [PYRIDOSTATIN]	-5.01	-5	-4.99	-5.03	61%	31.7%	59.6%	56.9%	74	54	58.1	82.2
[O-][n+]1ccccc1[S-].[O-][n+]1ccccc1[S-].[Zn+2] [PYRITHIONE ZINC]	-5.6	-5.23	-5.61	-5.55	82.5%	93.1%	83.5%	75.7%	130	112	135	116
CCN(CC)CCCC(C)Nc1c2ccc(Cl)cc2nc2ccc(OC)cc12 (stereo not drawn) [QUINACRINE]	-4.79	-4.78	-4.75	-4.97	74.8%	72.4%	74.3%	74.3%	79.9	56	55.7	73.7
O=C(c1ccc(OCCN2CCCCC2)cc1)c1c(-c2ccc(O)cc2)sc2cc(O)ccc12 [RALOXIFENE]	-4.93	-4.93	-4.93	-4.88	68.3%	73.5%	73.2%	73.2%	63.5	68.2	67.7	64.5
CNC(=O)c1cc(Oc2ccc(NC(=O)Nc3ccc(Cl)c(C(F)(F)F)c3)c(F)c2)ccn1 [REGORAFENIB]	-4.87	-5.37	-5.33	-5.33	37.6%	43.5%	33.2%	38%	39.5	62.5	55.2	70.8
O=C(CCCCCCNC(=O)c1cnc(N(c2ccccc2)c2ccccc2)nc1)NO [ROCILINOSTAT]	-4.94	-4.87	-4.96	-4.9	62.1%	39.7%	26.8%	39.1%	63.1	60.5	25.7	49.1
Cc1ccc(NC2=CC(=O)c3sc(C)nc3C2=O)cc1 [RYUVIDINE]	-6.12	-5.7	-5.76	-6.18	97.5%	110%	98.1%	90.5%	207	187	169	197
CC[C@@H](C(=O)[C@@H](C)[C@@H](O)[C@H](C)[C@@H]1O[C@@H]([C@@H](CC)C(=O)O)CC[C@@H]1C)[C@H]1O[C@]2(C=C[C@@H](O)[C@]3(CC[C@@](C)([C@H]4CC[C@](O)(CC)[C@H](C)O4)O3)O2)[C@H](C)C[C@@H]1C [SALINOMYCIN]	-5.32	-6.53	-6.01	-5.03	69.7%	62.6%	73.9%	60.5%	106	153	153	85.6
Clc1ccc(C(Cn2ccnc2)OCc2csc3c(Cl)cccc23)c(Cl)c1 (stereo not drawn) [SERTACONAZOLE]	-4.81	-4.87	-4.95	-4.82	64.2%	84.7%	61.9%	62.2%	51.2	73.6	72.3	50.7
CN[C@H]1CC[C@@H](c2ccc(Cl)c(Cl)c2)c2ccccc21 [SERTRALINE]	-4.86	-4.82	-4.83	-4.79	85.3%	86.5%	91.4%	81%	73.3	70	83.8	63.3
CNC(=O)c1cc(Oc2ccc(NC(=O)Nc3ccc(Cl)c(C(F)(F)F)c3)cc2)ccn1 [SORAFENIB]	-4.82	-4.9	-4.96	-4.9	57.2%	79%	80.4%	75.3%	46.9	104	77	77.2
Cc1nc(-c2cccnc2)sc1C(=O)Nc1ccccc1-c1cn2c(CN3CCOCC3)csc2n1 [SRT2104]	-5.16	-5.24	-4.84	-5.21	69%	68.5%	72.4%	67.3%	79.7	101	60.9	80.8
Clc1ccc(CSC(Cn2ccnc2)c2ccc(Cl)cc2Cl)cc1 (stereo not drawn) [SULCONAZOLE]	-4.86	-4.68	-4.87	-4.87	45.9%	61.3%	34.1%	44.1%	48.2	41.8	39.2	44.2
Cc1nc(-c2cn3c(n2)-c2ccc(-c4cnn(C(C)(C)C(N)=O)c4)cc2OCC3)n(C(C)C)n1 [TASELISIB]	-5.8	-6.36	-5.49	-6.13	63.3%	56.7%	47.5%	38.8%	122	138	74.8	86
COc1cc([C@@H]2c3cc4c(cc3[C@@H](O[C@@H]3O[C@@H]5CO[C@@H](c6cccs6)O[C@H]5[C@H](O)[C@H]3O)[C@H]3COC(=O)[C@H]23)OCO4)cc(OC)c1O [TENIPOSIDE]	-6.01	-5.43	-5.94	-5.36	33.5%	50.7%	37.6%	31.2%	63.2	81.2	75.2	42.9
Clc1ccc(C(Cn2ccnc2)OCc2ccsc2Cl)c(Cl)c1 (stereo not drawn) [TIOCONAZOLE]	-4.77	-4.73	-4.79	-4.82	48.3%	78%	65.3%	46.3%	36.4	56	51.3	38.1
CN1CCN(CCCN2c3ccccc3Sc3ccc(C(F)(F)F)cc32)CC1 [TRIFLUOPERAZINE]	-4.89	-4.88	-4.86	-4.78	82.9%	87.2%	90.3%	80.2%	74.2	76.8	87.4	62.3
COc1cc2nc(N3CCCC3)nc(NCCCCCN3CCCC3)c2cc1OC [UNC0379]	-4.88	-5.05	-4.89	-4.91	71.8%	71.5%	72.1%	70.1%	70.8	75.1	69.3	73.6
COc1cc2c(NC3CCN(C(C)C)CC3)nc(N3CCC(F)(F)CC3)nc2cc1OCCCN1CCCC1 [UNC0642]	-4.96	-5.19	-4.84	-5.05	74.9%	70.6%	74.9%	72.8%	71.3	96	62.5	75.5
CCCc1cc(C)[nH]c(=O)c1CNC(=O)c1cc(-c2ccc(N3CCN(C(C)C)CC3)nc2)cc2c1cnn2C(C)C [UNC1999]	-5.02	-5.18	-4.92	-5.11	73.8%	73.8%	76.4%	72.5%	75	85.9	70.2	83.6
COc1cc2/c(=N/c3ccc(Br)cc3F)nc[nH]c2cc1OCC1CCN(C)CC1 [VANDETANIB]	-4.74	-4.7	-4.75	-4.7	80.7%	80.9%	80.4%	77.1%	68.7	65.1	60.3	54.2
O=C(CCCCCCC(=O)Nc1ccccc1)NO [VORINOSTAT]	-4.98	-4.65	-4.71	-4.68	74.2%	68%	64.3%	76.9%	77.5	58.2	60.1	83.9
